Here are results for one substance from publication PMC6914219 (European journal of pharmacology, 2019).

The subject of this data set is Caco-2 monolayers.

One may read the Papp as the rate of passage across a membrane or cell layer, normalised by area and donor concentration. For the substance lucifer yellow, the Papp is < 1e+12 ×10⁻⁶ cm/s.
